# Experimental data as given in PubChem BioAssay (NCI).
# “And” between values parts separate entries of the source, which are not always exact repeats. Equal entries are not always repeated.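 Following 48 hours of exposure in 96-well plates, responses at five concentrations were used to interpolate endpoints linearly. GI50 is the concentration that inhibits growth by half. The concentration for full growth arrest is given as TGI.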
# Key:
# Assay in all cases: NCI anticancer screen, dose series, 48 h
# [1] = system: NCI-H226 lung
# [2] = system: MDA-MB-435
# [3] = system: T-47D breast
# [4] = system: ACHN renal
# [5] = system: NCI-H522 lung
# [6] = system: HCT-15 colon
# [7] = system: SN12C renal
# [8] = system: SNB-19 CNS
# [9] = system: DU-145 prostate
# [10] = system: HL-60(TB) leukemia
# [11] = system: SK-MEL-5 melanoma
# [12] = system: CAKI-1 renal
# [13] = system: SK-MEL-28 melanoma
# [14] = system: UACC-62 melanoma
# [15] = system: LOX IMVI melanoma
# [16] = system: RPMI-8226 leukemia
# [17] = system: HOP-62 NSCLC
# [18] = system: K-562 leukemia
# [19] = system: SF-539 CNS
# [20] = system: COLO 205 colon
# [21] = system: A549 NSCLC
# [22] = system: MDA-N
# [23] = system: CCRF-CEM leukemia
# [24] = system: SK-MEL-2 melanoma
# [25] = system: OVCAR-5 ovarian
# [26] = system: MALME-3M melanoma
# [27] = system: MOLT-4 leukemia
# [28] = system: MDA-MB-231 breast
# [29] = system: OVCAR-3 ovarian
# [30] = system: KM12 colon
# [31] = system: HCC-2998 colon
# [32] = system: NCI/ADR-RES ovarian
# [33] = system: OVCAR-8 ovarian
# [34] = system: OVCAR-4 ovarian
# [35] = system: NCI-H23 lung
# [36] = system: RXF 393 renal
# [37] = system: BT-549 breast
# [38] = system: HOP-92 NSCLC
# [39] = system: SF-295 CNS
# [40] = system: UACC-257 melanoma
# [41] = system: TK-10 renal
# [42] = system: MCF7 breast
# [43] = system: HS 578T breast
# [44] = system: SF-268 CNS
# [45] = system: UO-31 renal
# [46] = system: SW-620 colon
# [47] = system: U251 CNS
# [48] = system: SK-OV-3 ovarian
# [49] = system: EKVX NSCLC
# [50] = system: 786-0 renal
# [51] = system: SNB-75 CNS
# [52] = system: NCI-H460 lung
# [53] = system: SR leukemia
# [54] = system: HT29 colon
# [55] = system: HCT-116 colon
# [56] = system: A498 renal
# [57] = system: IGROV1 ovarian
# [58] = system: PC-3 prostate
# [59] = system: DMS 114 small cell lung
# [60] = system: HOP-18 NSCLC
# [61] = system: SNB-78 CNS
# [62] = system: LXFL 529 NSCLC
# [63] = system: M14 melanoma
# [64] = system: DLD-1 colon
# [65] = system: KM20L2 colon
# [66] = system: DMS 273 small cell lung
# [67] = system: M19-MEL melanoma
smiles,measurement,setting,value
Cc1ccc(/C=C2\CCCC(CN3CCCCC3)C2=O)cc1 (centres undefined),TGI,[1],5.99 µM
same,TGI,[2],3.81 µM
same,TGI,[3],3.41 µM
same,TGI,[4],16.4 µM
same,TGI,[5],3.22 µM
same,TGI,[6],4.3 µM
same,TGI,[7],8.4 µM
same,TGI,[8],29.6 µM
same,TGI,[9],23.9 µM
same,TGI,[10],> 100 µM
same,TGI,[11],17.4 µM
same,TGI,[12],3.19 µM
same,TGI,[13],3.22 µM
same,TGI,[14],16.4 µM
same,TGI,[15],3.29 µM
same,TGI,[16],> 100 µM
same,TGI,[17],35.4 µM
same,TGI,[18],> 100 µM
same,TGI,[19],15.6 µM
same,TGI,[20],3.25 µM
same,TGI,[21],33.1 µM
same,TGI,[22],7.78 µM
same,TGI,[23],3.03 µM
same,TGI,[24],9.91 µM
same,TGI,[25],28.7 µM
same,TGI,[26],5.98 µM
same,TGI,[27],> 100 µM
same,TGI,[28],3.34 µM
same,TGI,[29],3.39 µM
same,TGI,[30],2.72 µM
same,TGI,[31],28.9 µM
same,TGI,[32],42.5 µM
same,TGI,[33],6.79 µM
same,TGI,[34],3.62 µM
same,TGI,[35],4.86 µM
same,TGI,[36],3.15 µM
same,TGI,[37],4.84 µM
same,TGI,[38],4.04 µM
same,TGI,[39],30.9 µM
same,TGI,[40],4.02 µM
same,TGI,[41],7.44 µM
same,TGI,[42],2.1 µM
same,TGI,[43],6.59 µM
same,TGI,[44],4.07 µM
same,TGI,[45],3.58 µM
same,TGI,[46],3.14 µM
same,TGI,[47],27.3 µM
same,TGI,[48],30.1 µM
same,TGI,[49],32.7 µM
same,TGI,[50],4.02 µM
same,TGI,[51],17.7 µM
same,TGI,[52],15.9 µM
same,TGI,[53],> 100 µM
same,TGI,[54],3.28 µM
same,TGI,[55],3.26 µM
same,TGI,[56],26.1 µM
same,TGI,[57],3.72 µM
same,TGI,[58],5.74 µM
C/C1=C\[C@@H](O)C(=O)/C=C/C=C\c2csc(n2)[C@@H](C)NC(=O)C[C@@]2(CC1)S(=O)SC(=O)[C@]2(C)O (some centres undefined),GI50,[1],0.0254 µM
same,TGI,[1],0.558 µM and 0.327 µM
same,TGI,[59],0.169 µM and 0.022 µM
same,TGI,[60],0.178 µM
same,TGI,[2],0.0562 µM
same,TGI,[3],0.0217 µM
same,GI50,[4],0.00433 µM
same,TGI,[4],0.038 µM and 0.0122 µM
same,TGI,[5],0.0105 µM
same,TGI,[7],0.0882 µM and 0.0192 µM
same,GI50,[8],1.15 µM
same,TGI,[8],0.511 µM and 2.87 µM
same,TGI,[9],0.114 µM
same,TGI,[10],7.36 µM
same,TGI,[11],0.0435 µM and 0.0168 µM
same,TGI,[12],0.0191 µM
same,TGI,[13],0.0727 µM and 0.0168 µM
same,TGI,[14],0.0487 µM
same,TGI,[15],0.0605 µM
same,GI50,[16],> 100 µM
same,TGI,[16],> 100 µM
same,GI50,[17],0.28 µM
same,TGI,[17],0.374 µM and 1.83 µM
same,TGI,[18],> 100 µM
same,TGI,[19],0.0495 µM and 0.023 µM
same,TGI,[20],0.0903 µM and 0.0418 µM
same,TGI,[21],0.713 µM and 0.368 µM
same,TGI,[61],0.0589 µM
same,TGI,[23],> 100 µM
same,TGI,[24],0.0148 µM
same,GI50,[25],0.0169 µM
same,TGI,[25],0.699 µM and 0.145 µM
same,TGI,[26],0.025 µM
same,TGI,[62],0.0333 µM and 0.0187 µM
same,GI50,[27],> 100 µM
same,TGI,[28],0.265 µM
same,TGI,[31],0.676 µM
same,TGI,[32],0.11 µM
same,TGI,[33],0.0624 µM and 0.0152 µM
same,TGI,[34],0.0793 µM
same,TGI,[35],0.0275 µM and 0.0102 µM
same,TGI,[36],0.0331 µM
same,TGI,[37],0.0062 µM
same,TGI,[38],0.011 µM
same,GI50,[39],0.053 µM
same,TGI,[39],0.59 µM and 3.73 µM
same,TGI,[40],0.115 µM and 0.0222 µM
same,GI50,[41],0.0131 µM
same,TGI,[41],0.861 µM and 0.138 µM
same,TGI,[42],0.0101 µM
same,TGI,[43],0.435 µM
same,TGI,[44],0.285 µM and 0.06 µM
same,TGI,[45],0.0889 µM
same,TGI,[46],0.0143 µM
same,TGI,[63],0.0397 µM
same,TGI,[64],0.213 µM and 0.0233 µM
same,TGI,[65],0.636 µM and 0.599 µM
same,GI50,[47],0.0122 µM
same,TGI,[47],0.209 µM and 0.267 µM
same,GI50,[48],0.181 µM
same,TGI,[48],0.472 µM and 2.74 µM
same,TGI,[49],0.612 µM
same,TGI,[50],0.0354 µM and 0.0108 µM
same,TGI,[51],0.0995 µM and 0.0219 µM
same,TGI,[52],0.27 µM and 0.327 µM
same,GI50,[53],> 100 µM
same,TGI,[66],0.106 µM
same,GI50,[55],0.0045 µM
same,TGI,[55],0.0259 µM
same,TGI,[56],0.0272 µM
same,GI50,[57],0.0237 µM
same,TGI,[57],0.552 µM and 0.23 µM
same,TGI,[58],0.0387 µM
C/C=C(\C)c1cc(O)c(C)c2c1Oc1cc(O)c(Cl)c(C)c1C(=O)O2,TGI,[1],33.6 µM
same,TGI,[59],74.9 µM
same,TGI,[4],54.6 µM
same,TGI,[5],51.3 µM
same,TGI,[7],30.9 µM
same,TGI,[8],31.6 µM
same,TGI,[10],67.3 µM
same,TGI,[11],26.9 µM
same,TGI,[12],> 100 µM
same,TGI,[13],72.2 µM
same,TGI,[67],81.8 µM
same,TGI,[15],31.6 µM
same,TGI,[17],51.1 µM
same,TGI,[19],48.2 µM
same,TGI,[20],49.3 µM
same,TGI,[21],74 µM
same,TGI,[61],82.6 µM
same,TGI,[24],41.8 µM
same,TGI,[25],30.2 µM
same,TGI,[62],60 µM
same,TGI,[30],47.6 µM
same,TGI,[31],26.5 µM
same,TGI,[33],45.9 µM
same,TGI,[34],34.5 µM
same,TGI,[35],38.6 µM
same,TGI,[36],34.1 µM
same,TGI,[39],32.4 µM
same,TGI,[40],44.2 µM
same,TGI,[41],30.4 µM
same,TGI,[44],66 µM
same,TGI,[45],27.2 µM
same,TGI,[46],37.4 µM
same,TGI,[63],43.4 µM
same,TGI,[64],33.9 µM
same,TGI,[65],35.2 µM
same,TGI,[47],39.6 µM
same,TGI,[49],61.2 µM
same,TGI,[50],49.2 µM
same,TGI,[51],53.3 µM
same,TGI,[52],39.7 µM
same,TGI,[53],49.5 µM
same,TGI,[54],34.7 µM
same,TGI,[66],67.9 µM
